Laboratory results reported in patent publication EP0155934B1, “Pharmaceutical compositions for treating androgen-related disorders in humans” (Duke University, priority 1983, dated 1985).

Assays:
5α-Reductase = assay: Preincubation of enzyme with inhibitor and NADPH, tenfold dilution, then assay for 5a-reductase activity; assay type: biochemical; conditions: for manner of combination with / inactivation of the enzyme: in the presence of the co-factor NADPH; for Picomol Testosterone reduced/mg protein in 45 min + SEM: testosterone 5x10^-8, NADPH 5x10^-4
Text: (§1) The compounds of the present invention represent an important advance over progestrone and derivatives thereof since they are irreversible inhibitors of the enzyme 5a-reductase. Employing the assay of R. J. Moore and J. D. Wilson [Methods in Enzymology, Vol. XXXVI, Academic Press, N.Y., Ed. W. O'Malley and G. Hardman, p.

[1] = topical administration of a 0.5% solution in aqueous ethanol; cited from earlier work
[2] = system: cell-culture preparations of human prostate; conditions: thereby inhibiting growth of the tissue; cited from earlier work
enzyme 5a-reductase = assay: 5a-reductase inhibition, assay of R. J. Moore and J. D. Wilson; assay type: biochemical; conditions: compared with progesterone
Text: as §1

5a-reductase = assay: Time course of inactivation of 5a-reductase after incubation with NADPH and inhibitor (saturation kinetics); assay type: biochemical; conditions: Fig. 1
Experimental: The time course of inactivation of 5a-reductase following incubation of the enzyme with NADPH and 17a-acetoxy-6-methyleneprogesterone is shown in Fig. 1.
When these rate constants are plotted (as the t 1/2's) against the reciprocal of the inhibitor concentrations, a straight line i obtained with a positive intercept on the y-axis, indicating a saturation phenomenon (Fig. 2). […] The rate constant for this step (kcat) is 4.8 x 10-^3 s-'.

Compound	manner of combination with / inactivation of the enzyme (5α-Reductase)	enzyme inactivation on preincubation (5α-Reductase; similar preincubation of the enzyme (with NADPH))	males with acne with an important decrease in sebum secretion [1]	inhibition of the enzyme [2]	potency as inhibitors of the enzyme (enzyme 5a-reductase)	Picomol Testosterone reduced/mg protein in 45 min + SEM (5α-Reductase; A: preincubation 15 min with inhibitor 5x10^-7 M and NADPH 6x10^-5, assay: inhibitor 5x10^-8 M, n = 6)	Picomol Testosterone reduced/mg protein in 45 min + SEM (5α-Reductase; B: preincubation 15 min without inhibitor, NADPH 6x10^-5, assay: inhibitor 5x10^-8 M, n = 6)	Picomol Testosterone reduced/mg protein in 45 min + SEM (5α-Reductase; C: preincubation 15 min without inhibitor and without NADPH, assay: inhibitor 5x10^-8 M, n = 6)	Picomol Testosterone reduced/mg protein in 45 min + SEM (5α-Reductase; D: preincubation 15 min with inhibitor 5x10^-7 M, no NADPH, assay: inhibitor 5x1-^-8 M, n = 6)	Picomol Testosterone reduced/mg protein in 45 min + SEM (5α-Reductase; F: no preincubation, assay: inhibitor 5x10^-8 M, n = 4)	enzyme activity lost (5α-Reductase; preincubation with inhibitor and NADPH, diluting tenfold, assaying for 5a-reductase activity)	time course of inactivation of the enzyme (5a-reductase)
CC(=O)[C@H]1CC[C@H]2[C@@H]3CCC4=CC(=O)CC[C@]4(C)[C@H]3CC[C@]12C [Progesterone, reference compound]	competitive and reversible	does not result in enzyme inactivation	45/53	strongly inhibits								
C=C1C[C@H]2[C@@H]3CC[C@H](C(C)=O)[C@@]3(C)CC[C@@H]2[C@@]2(C)CCC(=O)C=C12 [6-methyleneprogesterone]					equipotent with progesterone							
C=C1C[C@@H]2[C@H](CC[C@@]3(C)[C@H]2CC[C@]3(OC(C)=O)C(C)=O)[C@@]2(C)CCC(=O)C=C12 [17a-acetoxy-6-methyleneprogesterone, 17-Acetoxy-6-methylene-4-pregnen-3,20-dione]	irreversible				equipotent with progesterone	0.71±0.018n = 6 Picomol Testosterone reduced/mg protein in 45 min	3.0 ±0.26n = 6 Picomol Testosterone reduced/mg protein in 45 min	2.83±0.09n = 6 Picomol Testosterone reduced/mg protein in 45 min	2.63±0.18n = 6 Picomol Testosterone reduced/mg protein in 45 min	3.14±0.20n = 4 Picomol Testosterone reduced/mg protein in 45 min	75%	pseudo first-order kinetics
